“Also recorded” adds a separate entry of the source.
What was measured:
[1] = test system: voltage-gated chloride channels; details: cited from earlier work
[2] = test system: a variety of nematode species, including Caenorhabditis elegans and Meloidogyne incognita; details: 100 ppm; cited from earlier work
H. megidis = details: concentrations up to 200 ug/ml; cited from earlier work
[3] = test system: Heterorhabditis bacteriophora; assay: Toxicity test, infective juveniles (J3) of Heterorhabditis bacteriophora; assay type: in vivo; details: 200 ppm, up to 168 hrs of exposure
Experimental: Toxicity tests were conducted using infective juveniles (J3) of H. bacteriophora collected from infested Galleria mellonella larvae. Test solution (280 ul) was placed in a well of a 96-well plate and 20 ul aqueous solution containing nematodes was added. The nematodes in 20 ul solution ranged from 15 to 21 (n=10). Plates were sealed with Parafilm™ and incubated at room temperature. Similar tests conducted with 0.2% DMSO alone served as controls. Stock solution prepared in DMSO was added to wells to achieve 200 ppm. Nematode mortality was checked at 24, 48, 72, 120, and 168 hr after incubation. Nematodes that were motionless for 30 seconds when observed under stereo microscope were considered dead and included in mortality counts. Each concentration was replicated five times.
This broad cross resistance supports a role for AT blockers in the action of these compounds.

For `Cl[C@H]1[C@H](Cl)[C@@H](Cl)[C@@H](Cl)[C@H](Cl)[C@H]1Cl` [lindane], the “potency as inhibitor of [35S]TBPS binding, Torpedo membranes versus rat brain” value [1] is listed as “about 4 fold”.
For `CC(C)c1c(O)cc(/C=C/c2ccccc2)cc1O` [DST], the 24 hr lethality [2] is given as 100% and the “sensitivity to DST” value (H. megidis) is given as “completely insensitive”.
With `CCOP(=S)(OCC)Oc1nc(Cl)c(Cl)cc1Cl` [chlorpyrifos] the “toxicity (FIG. 4)” value [3] was “fully susceptible; also recorded: quite active in killing”.
